System: growth of superfluous hair
Assay: Inhibition of superfluous hair growth evaluated by the Trichoscan method
Format: in vivo
Conditions: 10% capryloyl glycine cream, topical, compared with eflornithine efficacy reported in Eur. J Dermatol 2008, 18 (1): 65-70
Description: The ability of capryloyl glycine to inhibit the growth of superfluous hair was evaluated by the Trichoscan® method (http://trichoscan.com/pages/english/professional-info/reference-values.php).

## CCCCCCCC(=O)NCC(=O)O [capryloyl glycine]
  ability to inhibit the growth of superfluous hair (efficacy): efficacy comparable to that of eflornithine
